The values that follow come from the NIST ThermoML archive (doi:10.1021/je030167i).

For series [1] the following is noted: 101.3 kPa, Liquid.
The nature of series [2]: xn = mol fraction of the nth substance listed. The settings on record: 101.3 kPa, Liquid.

Molecules are shown by their SMILES. Numbers after ± are expanded uncertainties.

As to `CCCCO` [butan-1-ol], in series [1] (298.15 K), the kinematic viscosity came to 3.19e-06 ± 9.3e-08 m2/s and the mass density (usually mass per unit of volume) was 805.56 ± 0.29 kg/m3. Moreover, in series [1] (313.15 K), the kinematic viscosity was 2.22e-06 ± 6.7e-08 m2/s and the mass density was 794.19 ± 0.3 kg/m3.

With `CCCCCl` [1-chlorobutane], in series [1] (298.15 K), the kinematic viscosity is 4.78e-07 ± 1.7e-08 m2/s and the mass density was 880.62 ± 0.3 kg/m3. Further, in series [1] (313.15 K), the kinematic viscosity was 4.21e-07 ± 1.6e-08 m2/s and the mass density is given as 863.86 ± 0.31 kg/m3.

Consider `CC(C)CCl` [1-chloro-2-methylpropane], for which, in series [1] (298.15 K), the kinematic viscosity was 4.92e-07 ± 1.8e-08 m2/s and the mass density is reported as 870.93 ± 0.49 kg/m3. Moreover, in series [1] (313.15 K), the kinematic viscosity worked out at 4.29e-07 ± 1.6e-08 m2/s and the mass density is 853.51 ± 0.49 kg/m3.

On to `CC1CCCO1` (configuration not stated) [2-methyltetrahydrofuran], for which the figures for the kinematic viscosity in series [1] (298.15 K) and in series [1] (313.15 K) were 5.59e-07 ± 2e-08 m2/s and 4.92e-07 ± 1.8e-08 m2/s, respectively. The mass density in series [1] (298.15 K) is listed as 849.28 ± 0.49 kg/m3; in series [1] (313.15 K), 834.01 ± 0.49 kg/m3.

For `CCC(C)O` (configuration not stated) [butan-2-ol], the kinematic viscosity in series [1] (298.15 K) stood at 3.73e-06 ± 1.1e-07 m2/s; in series [1] (313.15 K), 2.24e-06 ± 7e-08 m2/s. Besides, the mass density in series [1] (298.15 K) stood at 802.25 ± 0.49 kg/m3; in series [1] (313.15 K), 789.44 ± 0.5 kg/m3.

As for `CCC(C)Cl` (configuration not stated) [2-chlorobutane], in series [1] (298.15 K), the kinematic viscosity came out at 4.54e-07 ± 1.7e-08 m2/s and the mass density was 867.31 ± 0.49 kg/m3. Besides, in series [1] (313.15 K), the kinematic viscosity is 3.97e-07 ± 1.5e-08 m2/s and the mass density stood at 850.23 ± 0.49 kg/m3.

For `CC(C)CO` [2-methyl-1-propanol], in series [1] (298.15 K), the kinematic viscosity is 4.25e-06 ± 1.2e-07 m2/s and the mass density worked out at 797.71 ± 0.35 kg/m3. Besides, in series [1] (313.15 K), the kinematic viscosity worked out at 2.74e-06 ± 8.2e-08 m2/s and the mass density came out at 785.89 ± 0.36 kg/m3.

For the molecule `CC(C)(C)Cl` [2-chloro-2-methylpropane], in series [1] (298.15 K), the kinematic viscosity is 5.66e-07 ± 1e-08 m2/s and the mass density stood at 835.75 ± 0.49 kg/m3.

With `CCC(C)Cl` (configuration not stated) [2-chlorobutane] + CC1CCCO1, the kinematic viscosity in series [2] (298.15 K, x1 = 0.035) is 5.55e-07 ± 2e-08 m2/s; in series [2] (298.15 K, x1 = 0.0835), 5.49e-07 ± 1.9e-08 m2/s; in series [2] (298.15 K, x1 = 0.1742), 5.38e-07 ± 1.9e-08 m2/s; in series [2] (298.15 K, x1 = 0.2553) it was 5.29e-07 ± 1.9e-08 m2/s; in series [2] (298.15 K, x1 = 0.3568) it was 5.17e-07 ± 1.9e-08 m2/s; in series [2] (298.15 K, x1 = 0.4555) it was 5.05e-07 ± 1.8e-08 m2/s. Besides, the kinematic viscosity in series [2] (298.15 K, x1 = 0.5396) was determined as 4.96e-07 ± 1.8e-08 m2/s; in series [2] (298.15 K, x1 = 0.697), 4.81e-07 ± 1.8e-08 m2/s; in series [2] (298.15 K, x1 = 0.797) it was 4.71e-07 ± 1.7e-08 m2/s; in series [2] (298.15 K, x1 = 0.8975) it was 4.63e-07 ± 1.7e-08 m2/s; in series [2] (298.15 K, x1 = 0.9487), 4.58e-07 ± 1.7e-08 m2/s; in series [2] (298.15 K, x1 = 1) it was 4.54e-07 ± 1.7e-08 m2/s. Also, the kinematic viscosity in series [2] (313.15 K, x1 = 0.035) was determined as 4.88e-07 ± 1.8e-08 m2/s; in series [2] (313.15 K, x1 = 0.0835), 4.83e-07 ± 1.8e-08 m2/s; in series [2] (313.15 K, x1 = 0.1742), 4.74e-07 ± 1.7e-08 m2/s; in series [2] (313.15 K, x1 = 0.2553) it was 4.65e-07 ± 1.7e-08 m2/s; in series [2] (313.15 K, x1 = 0.3568) it was 4.56e-07 ± 1.7e-08 m2/s; in series [2] (313.15 K, x1 = 0.4555), 4.46e-07 ± 1.7e-08 m2/s. The kinematic viscosity in series [2] (313.15 K, x1 = 0.5396) came out at 4.38e-07 ± 1.6e-08 m2/s; in series [2] (313.15 K, x1 = 0.697) it was 4.24e-07 ± 1.6e-08 m2/s; in series [2] (313.15 K, x1 = 0.797) it was 4.15e-07 ± 1.6e-08 m2/s; in series [2] (313.15 K, x1 = 0.8975), 4.06e-07 ± 1.5e-08 m2/s; in series [2] (313.15 K, x1 = 0.9487) it was 4.01e-07 ± 1.5e-08 m2/s; in series [2] (313.15 K, x1 = 1), 3.97e-07 ± 1.5e-08 m2/s. Besides, the mass density in series [2] (298.15 K, x1 = 0.035) was determined as 850.14 ± 0.49 kg/m3; in series [2] (298.15 K, x1 = 0.0835) it was 851.29 ± 0.49 kg/m3; in series [2] (298.15 K, x1 = 0.1742), 853.4 ± 0.49 kg/m3; in series [2] (298.15 K, x1 = 0.2553) it was 854.9 ± 0.49 kg/m3; in series [2] (298.15 K, x1 = 0.3568), 857.12 ± 0.49 kg/m3; in series [2] (298.15 K, x1 = 0.4555) it was 858.75 ± 0.49 kg/m3. Moreover, the mass density in series [2] (298.15 K, x1 = 0.5396) is on record as 860.37 ± 0.49 kg/m3; in series [2] (298.15 K, x1 = 0.697) it was 863.09 ± 0.49 kg/m3; in series [2] (298.15 K, x1 = 0.797), 864.45 ± 0.49 kg/m3; in series [2] (298.15 K, x1 = 0.8975), 866.03 ± 0.49 kg/m3; in series [2] (298.15 K, x1 = 0.9487) it was 866.65 ± 0.49 kg/m3; in series [2] (298.15 K, x1 = 1), 867.31 ± 0.49 kg/m3. Further, the mass density in series [2] (313.15 K, x1 = 0.035) is recorded as 834.84 ± 0.49 kg/m3; in series [2] (313.15 K, x1 = 0.0835), 835.54 ± 0.49 kg/m3; in series [2] (313.15 K, x1 = 0.1742) it was 837.42 ± 0.49 kg/m3; in series [2] (313.15 K, x1 = 0.2553), 839.1 ± 0.49 kg/m3; in series [2] (313.15 K, x1 = 0.3568), 840.87 ± 0.49 kg/m3; in series [2] (313.15 K, x1 = 0.4555), 842.26 ± 0.49 kg/m3. Besides, the mass density is recorded as 843.91 ± 0.49 kg/m3 in series [2] (313.15 K, x1 = 0.5396); 846.32 ± 0.49 kg/m3 in series [2] (313.15 K, x1 = 0.697); 847.77 ± 0.49 kg/m3 in series [2] (313.15 K, x1 = 0.797); 848.87 ± 0.49 kg/m3 in series [2] (313.15 K, x1 = 0.8975); 849.41 ± 0.49 kg/m3 in series [2] (313.15 K, x1 = 0.9487); 850.23 ± 0.49 kg/m3 in series [2] (313.15 K, x1 = 1).

With `CC(C)CO` [2-methyl-1-propanol] + CC1CCCO1, in series [2] (298.15 K, x1 = 1), the kinematic viscosity is 4.25e-06 ± 1.2e-07 m2/s and the mass density is 797.71 ± 0.35 kg/m3. In series [2] (313.15 K, x1 = 1), the kinematic viscosity stood at 2.74e-06 ± 8.2e-08 m2/s and the mass density was found to be 785.89 ± 0.36 kg/m3.
